This is an account of results in US12662465B2, “EGFR inhibitors” (Blueprint Medicines Corporation, priority 2021, dated 2026).

The target of assay [1] is T1, EGFR enzyme (Homo sapiens, UniProt P00533).
T1 construct: From knowledge only, the SignalChem E10-1xx 'G' products are GST-tagged cytoplasmic-domain constructs
In words: Biochemical EGFR inhibition assays (Biological Example 1), enzyme form not specified. The following applies: Biological Example/Assay 1; read-out: inhibitory activity.

Assay [2] relates to EGFR M+ NSCLC patients. The following applies: first line (1L), NSCLC harboring del19 and L858R mutations; cited from earlier work.
The target in assay [3] is T2, EGFR L858R (Homo sapiens, UniProt P00533, L858R).
T2 construct: purchased SignalChem E10-122BG
In words: Biochemical EGFR inhibition assay (Caliper mobility shift), EGFR L858R. The following applies: read-out: Enz EGFR_L858R IC50.

For assay [4], the target named is T3, EGFR (d746-750) (Homo sapiens, UniProt P00533, DEL746-750).
T3 construct: purchased SignalChem E10-122JG
Nature of the assay: Biochemical EGFR inhibition assay (Caliper mobility shift), EGFR (d746-750). The following applies: read-out: Enz EGFR_Exon19-del746-750 IC50.

Assay [5] concerns the target intracellular phosphorylation of EGFR (Tyr1068) in PC-9 cells (Ex19Del) (Homo sapiens, UniProt P00533, DEL746-750). Nature of the assay: PC-9 pEGFR AlphaLISA assay. Type of assay: cell-based. The following applies: 4 hours compound incubation, read-out: Ext pEGFR_PC-9 Ex19Del IC50. Background: Alpha assays give light when donor and acceptor beads are brought close together.

Where [6] appears, read: 1.0 mM ATP or ATP Km, room temperature (25° C.).

Read-outs that look alike come from different tables or passages of the source. Bounds are passed on as bounds.

T2 sequence (P00533 25-1210 L858R): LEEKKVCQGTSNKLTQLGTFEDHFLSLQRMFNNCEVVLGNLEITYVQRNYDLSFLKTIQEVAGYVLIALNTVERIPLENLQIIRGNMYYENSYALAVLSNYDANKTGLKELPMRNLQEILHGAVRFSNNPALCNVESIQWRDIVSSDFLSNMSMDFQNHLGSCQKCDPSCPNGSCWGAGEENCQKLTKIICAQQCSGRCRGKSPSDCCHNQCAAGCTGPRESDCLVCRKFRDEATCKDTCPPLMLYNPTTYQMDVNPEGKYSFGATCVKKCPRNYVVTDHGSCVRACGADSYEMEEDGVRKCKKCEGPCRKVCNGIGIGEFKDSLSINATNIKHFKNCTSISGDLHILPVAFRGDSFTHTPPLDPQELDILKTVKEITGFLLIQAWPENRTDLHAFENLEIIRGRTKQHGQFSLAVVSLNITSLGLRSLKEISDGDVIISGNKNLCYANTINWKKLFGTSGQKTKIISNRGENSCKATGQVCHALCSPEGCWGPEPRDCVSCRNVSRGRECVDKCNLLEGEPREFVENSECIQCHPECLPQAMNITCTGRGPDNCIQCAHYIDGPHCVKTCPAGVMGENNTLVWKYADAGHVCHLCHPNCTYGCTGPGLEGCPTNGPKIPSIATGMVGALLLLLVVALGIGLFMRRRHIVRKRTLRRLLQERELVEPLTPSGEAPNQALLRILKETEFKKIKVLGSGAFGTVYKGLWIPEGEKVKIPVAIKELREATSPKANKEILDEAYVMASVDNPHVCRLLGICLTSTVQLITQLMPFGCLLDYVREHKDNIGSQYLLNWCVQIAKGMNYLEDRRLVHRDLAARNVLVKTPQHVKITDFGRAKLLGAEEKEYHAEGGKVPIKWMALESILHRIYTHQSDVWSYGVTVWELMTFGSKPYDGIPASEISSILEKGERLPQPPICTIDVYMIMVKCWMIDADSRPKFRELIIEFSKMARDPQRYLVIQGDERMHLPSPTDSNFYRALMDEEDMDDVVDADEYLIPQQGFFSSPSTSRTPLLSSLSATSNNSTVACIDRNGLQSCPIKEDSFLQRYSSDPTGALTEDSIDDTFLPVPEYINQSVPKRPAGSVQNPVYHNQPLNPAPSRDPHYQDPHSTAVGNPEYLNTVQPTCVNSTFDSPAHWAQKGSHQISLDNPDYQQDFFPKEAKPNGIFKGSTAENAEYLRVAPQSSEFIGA
T3 sequence (P00533 with tags, fused parts or gaps DEL746-750 limits assumed): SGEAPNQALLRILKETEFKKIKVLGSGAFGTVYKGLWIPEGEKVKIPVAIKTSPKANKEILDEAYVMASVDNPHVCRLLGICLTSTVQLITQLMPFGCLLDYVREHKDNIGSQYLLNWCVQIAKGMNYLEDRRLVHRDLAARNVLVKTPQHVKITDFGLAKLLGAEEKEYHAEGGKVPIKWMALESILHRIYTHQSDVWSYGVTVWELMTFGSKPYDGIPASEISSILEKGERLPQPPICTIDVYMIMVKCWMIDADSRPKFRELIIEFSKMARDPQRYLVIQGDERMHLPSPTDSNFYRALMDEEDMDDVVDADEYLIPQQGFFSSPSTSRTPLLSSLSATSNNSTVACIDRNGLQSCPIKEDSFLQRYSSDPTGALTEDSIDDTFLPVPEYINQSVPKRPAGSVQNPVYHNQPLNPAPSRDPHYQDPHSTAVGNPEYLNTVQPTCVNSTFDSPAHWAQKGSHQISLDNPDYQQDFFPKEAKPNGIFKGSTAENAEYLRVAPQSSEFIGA
Sequence of intracellular phosphorylation of EGFR (Tyr1068) in PC-9 cells (Ex19Del) (P00533 with tags, fused parts or gaps DEL746-750): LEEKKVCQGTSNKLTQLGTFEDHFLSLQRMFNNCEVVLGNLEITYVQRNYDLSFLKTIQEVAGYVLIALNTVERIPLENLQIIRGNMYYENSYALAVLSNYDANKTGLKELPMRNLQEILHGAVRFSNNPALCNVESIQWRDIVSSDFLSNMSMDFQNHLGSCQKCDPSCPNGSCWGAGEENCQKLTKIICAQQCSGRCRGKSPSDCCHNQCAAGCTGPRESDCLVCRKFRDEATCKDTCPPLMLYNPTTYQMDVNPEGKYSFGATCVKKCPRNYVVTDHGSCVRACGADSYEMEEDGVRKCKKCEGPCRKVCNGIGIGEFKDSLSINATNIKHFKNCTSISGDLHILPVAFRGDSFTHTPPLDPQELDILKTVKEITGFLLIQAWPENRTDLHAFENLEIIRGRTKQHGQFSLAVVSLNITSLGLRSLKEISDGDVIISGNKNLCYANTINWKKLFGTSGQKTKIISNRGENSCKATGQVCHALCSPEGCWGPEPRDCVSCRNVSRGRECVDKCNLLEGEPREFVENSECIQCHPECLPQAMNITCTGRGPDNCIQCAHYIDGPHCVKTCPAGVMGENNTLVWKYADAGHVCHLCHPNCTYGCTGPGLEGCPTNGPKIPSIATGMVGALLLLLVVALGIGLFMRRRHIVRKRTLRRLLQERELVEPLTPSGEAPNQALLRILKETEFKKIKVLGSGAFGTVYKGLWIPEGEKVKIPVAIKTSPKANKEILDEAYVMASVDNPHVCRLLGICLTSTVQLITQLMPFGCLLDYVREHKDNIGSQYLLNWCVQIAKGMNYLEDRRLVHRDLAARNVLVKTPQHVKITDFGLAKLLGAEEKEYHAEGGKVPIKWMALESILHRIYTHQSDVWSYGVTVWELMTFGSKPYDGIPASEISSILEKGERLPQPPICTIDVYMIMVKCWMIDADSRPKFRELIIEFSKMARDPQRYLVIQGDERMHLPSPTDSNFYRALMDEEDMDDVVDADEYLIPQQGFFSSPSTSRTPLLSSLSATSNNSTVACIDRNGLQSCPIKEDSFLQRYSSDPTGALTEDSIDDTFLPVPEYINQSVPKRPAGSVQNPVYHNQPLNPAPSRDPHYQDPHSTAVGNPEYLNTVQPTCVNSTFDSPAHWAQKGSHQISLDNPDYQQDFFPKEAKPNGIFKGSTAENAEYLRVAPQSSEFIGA
T1 sequence (P00533 whole entry L858R, form open): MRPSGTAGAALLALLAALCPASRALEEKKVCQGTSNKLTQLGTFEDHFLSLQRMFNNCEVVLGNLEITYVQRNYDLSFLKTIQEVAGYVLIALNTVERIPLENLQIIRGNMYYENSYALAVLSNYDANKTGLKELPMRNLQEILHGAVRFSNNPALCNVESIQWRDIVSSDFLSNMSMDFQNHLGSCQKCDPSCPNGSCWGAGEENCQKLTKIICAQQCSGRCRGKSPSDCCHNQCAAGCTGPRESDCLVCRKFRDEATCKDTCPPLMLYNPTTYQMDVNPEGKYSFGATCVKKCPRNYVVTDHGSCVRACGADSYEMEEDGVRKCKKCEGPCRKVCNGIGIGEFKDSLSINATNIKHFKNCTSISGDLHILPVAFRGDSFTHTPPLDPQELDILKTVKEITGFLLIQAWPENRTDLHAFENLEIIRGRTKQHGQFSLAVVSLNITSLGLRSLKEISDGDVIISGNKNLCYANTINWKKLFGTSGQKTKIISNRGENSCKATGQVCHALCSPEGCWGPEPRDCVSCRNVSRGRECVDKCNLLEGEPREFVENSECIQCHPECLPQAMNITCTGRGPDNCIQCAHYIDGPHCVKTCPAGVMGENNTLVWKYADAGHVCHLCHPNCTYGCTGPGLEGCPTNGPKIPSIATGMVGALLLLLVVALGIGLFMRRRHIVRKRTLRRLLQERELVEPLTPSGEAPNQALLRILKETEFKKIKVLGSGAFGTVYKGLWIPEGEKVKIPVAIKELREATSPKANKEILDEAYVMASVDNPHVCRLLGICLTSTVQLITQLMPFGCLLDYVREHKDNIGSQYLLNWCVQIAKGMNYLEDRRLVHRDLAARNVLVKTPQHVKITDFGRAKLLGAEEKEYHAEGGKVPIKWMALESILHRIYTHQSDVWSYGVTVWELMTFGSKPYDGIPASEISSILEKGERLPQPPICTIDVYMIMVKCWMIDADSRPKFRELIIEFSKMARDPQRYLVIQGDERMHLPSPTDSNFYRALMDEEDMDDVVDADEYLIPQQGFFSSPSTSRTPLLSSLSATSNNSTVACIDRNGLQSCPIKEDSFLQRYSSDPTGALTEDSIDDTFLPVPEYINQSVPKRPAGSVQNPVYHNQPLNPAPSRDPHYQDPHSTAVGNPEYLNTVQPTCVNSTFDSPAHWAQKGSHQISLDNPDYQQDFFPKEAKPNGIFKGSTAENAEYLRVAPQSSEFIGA

As for `[2H]c1c(-c2cc(O[C@H](C)CN(C)C)c3c(Nc4ccc5ncccc5c4OC([2H])([2H])[2H])ncnc3c2)cnn1C`, the IC50 in assay [1] was more than 10000 nM.
Take `C=CC(=O)Nc1cc(Nc2nccc(-c3cn(C)c4ccccc34)n2)c(OC)cc1N(C)CCN(C)C` [osimertinib]: the “progression-free survival (PFS)” value in assay [2] is listed as 18.9 mo.
Consider `COCC(CO)[C@@H](C)Oc1cc(-c2cnn(C)c2)cc2ncnc(Nc3ccc4ncccc4c3F)c12` (stereo partly drawn) [Example 112, (3R)-3-((4-((5-fluoroquinolin-6-yl)amino)-7-(1-methyl-1H-pyrazol-4-yl)quinazolin-5-yl)oxy)-2-(methoxymethyl)butan-1-ol], for which the IC50 is less than 10 nM in assay [3], less than 10 nM in assay [4] and not above 10 nM in assay [5].
In the case of `C[C@H](CN(C)C)Oc1cc(-n2cc(F)cn2)cc2ncnc(Nc3ccc4ncccc4c3F)c12` [Example 82, (R)-5-((1-(dimethylamino)propan-2-yl)oxy)-7-(4-fluoro-1H-pyrazol-1-yl)-N-(5-fluoroquinolin-6-yl)quinazolin-4-amine], the IC50 in assay [3] is less than 10 nM; in assay [4] it was less than 10 nM; in assay [5] it was not above 10 nM.
For the molecule `C[C@H](CN(C)C)Oc1cc(N2CC3(COC3)C2)cc2ncnc(Nc3ccc4ncccc4c3F)c12` [Example 71, (R)-5-((1-(dimethylamino)propan-2-yl)oxy)-N-(5-fluoroquinolin-6-yl)-7-(2-oxa-6-azaspiro[3.3]heptan-6-yl)quinazolin-4-amine], the IC50 in assay [3] is less than 10 nM; in assay [4], less than 10 nM; in assay [5] it was not above 10 nM.
For the molecule `C[C@H](CN1CCC1)Oc1cc(-c2cnn(C)c2)cc2ncnc(Nc3ccc4ncccc4c3F)c12` [Example 101, (R)-5-((1-(azetidin-1-yl)propan-2-yl)oxy)-N-(5-fluoroquinolin-6-yl)-7-(1-methyl-1H-pyrazol-4-yl)quinazolin-4-amine], the figures for the IC50 in assay [3], in assay [4] and in assay [5] were 10.1 to 50 nM, less than 10 nM and not above 10 nM, respectively.
For `C[C@@H](Oc1cc(N2CC[C@@H](C(C)(C)O)C2)cc2ncnc(Nc3ccc4ncccc4c3F)c12)C1COC1` [Example 63, 2—((R)-1-(4-((5-fluoroquinolin-6-yl)amino)-5-((R)-1-(oxetan-3-yl)ethoxy)quinazolin-7-yl)pyrrolidin-3-yl)propan-2-ol], in that order: less than 10 nM, less than 10 nM and not above 10 nM.
`CN(C)[C@@H]1CC[C@H]1Oc1cc(-c2cnn(C)c2)cc2ncnc(Nc3ccc4ncccc4c3F)c12` (single isomer, unassigned) [Example 141, 5-((1R,2R)-2-(dimethylamino)cyclobutoxy)-N-(5-fluoroquinolin-6-yl)-7-(1-methyl-1H-pyrazol-4-yl)quinazolin-4-amine or 5-((1S,2S)-2-(dimethylamino)cyclobutoxy)-N-(5-fluoroquinolin-6-yl)-7-(1-methyl-1H-pyrazol-4-yl)quinazolin-4-amine]: the IC50 was 10.1 to 50 nM in assay [3] (setting [6]), 10.1 to 50 nM in assay [4] (setting [6]) and more than 50.1 nM in assay [5].
Regarding `C[C@H](CN(C)C)Oc1cc(-c2cnn(C)c2)cc2ncnc(Nc3cnc4ncccc4c3)c12` [Example 40, (R)-5-((1-(dimethylamino)propan-2-yl)oxy)-7-(1-methyl-1H-pyrazol-4-yl)-N-(1,8-naphthyridin-3-yl)quinazolin-4-amine], the IC50 in assay [3] is 10.1 to 50 nM; in assay [4] it was less than 10 nM; in assay [5], not above 10 nM.
For `COCCn1cc(-c2cc(O[C@H](C)C3COC3)c3c(Nc4ccc5ncccc5c4F)ncnc3c2)cn1` [Example 52, (R)—N-(5-fluoroquinolin-6-yl)-7-(1-(2-methoxyethyl)-1H-pyrazol-4-yl)-5-(1-(oxetan-3-yl)ethoxy)quinazolin-4-amine], in that order: less than 10 nM, less than 10 nM and not above 10 nM.
For `C[C@H](CN(C)C)Oc1cc(-c2cnn(C)c2)cc2ncnc(Nc3cc(O)c4ncccc4c3F)c12` [Example 122, (R)-6-((5-((1-(dimethylamino)propan-2-yl)oxy)-7-(1-methyl-1H-pyrazol-4-yl)quinazolin-4-yl)amino)-5-fluoroquinolin-8-ol], the values for the IC50 in assay [3], in assay [4] and in assay [5] were less than 10 nM, less than 10 nM and not above 10 nM, respectively.
In the case of `C[C@H](Oc1cc(-c2cnn(C)c2)cc2ncnc(Nc3ccc4ncccc4c3F)c12)C(=O)N1CCOCC1` (single isomer, unassigned) [Example 139, (S)-2-((4-((5-fluoroquinolin-6-yl)amino)-7-(1-methyl-1H-pyrazol-4-yl)quinazolin-5-yl)oxy)-1-morpholinopropan-1-one or (R)-2-((4-((5-fluoroquinolin-6-yl)amino)-7-(1-methyl-1H-pyrazol-4-yl)quinazolin-5-yl)oxy)-1-morpholinopropan-1-one], the IC50 was less than 10 nM in assay [3] (setting [6]), less than 10 nM in assay [4] (setting [6]) and not above 10 nM in assay [5].
On to `CN1CCC[C@@H](Oc2cc(-c3cnn(C)c3)cc3ncnc(Nc4ccc5ncccc5c4F)c23)C1` [Example 36, (R)—N-(5-fluoroquinolin-6-yl)-7-(1-methyl-1H-pyrazol-4-yl)-5-((1-methylpiperidin-3-yl)oxy)quinazolin-4-amine], for which the IC50 in assay [3] was 10.1 to 50 nM; in assay [4], less than 10 nM; in assay [5], 10.1 to 50 nM.
For the molecule `CC(CN(C)C)Oc1cc(N2CC3CC(C2)O3)cc2ncnc(Nc3ccc4ncccc4c3)c12` (racemic) [Example 66, 7-(6-oxa-3-azabicyclo[3.1.1]heptan-3-yl)-5-(((R)-1-(dimethylamino)propan-2-yl)oxy)-N-(quinolin-6-yl)quinazolin-4-amine and 7-(6-oxa-3-azabicyclo[3.1.1]heptan-3-yl)-5-(((S)-1-(dimethylamino)propan-2-yl)oxy)-N-(quinolin-6-yl)quinazolin-4-amine], the IC50 in assay [3] is 10.1 to 50 nM; in assay [4] it was less than 10 nM; in assay [5], not above 10 nM.
For `C[C@H](CN(C)C)Oc1cc(-c2cnn(C)c2)cc2ncnc(Nc3ccc4cccnc4c3F)c12` [Example 108, (R)-5-((1-(dimethylamino)propan-2-yl)oxy)-N-(8-fluoroquinolin-7-yl)-7-(1-methyl-1H-pyrazol-4-yl)quinazolin-4-amine], in that order: 10.1 to 50 nM, less than 10 nM and 10.1 to 50 nM.
For `C[C@H](CN(C)C)Oc1cc(-c2cnn(C)c2)cc2ncnc(Nc3cnc4ccccc4c3F)c12` [Example 110, (R)-5-((1-(dimethylamino)propan-2-yl)oxy)-N-(4-fluoroquinolin-3-yl)-7-(1-methyl-1H-pyrazol-4-yl)quinazolin-4-amine], in that order: less than 10 nM, less than 10 nM and more than 50.1 nM.
On to `C[C@@H](Oc1cc(-c2cnn(C)c2)cc2ncnc(Nc3ccc4ncc(F)cc4c3)c12)C1COC1` [Example 3, (R)—N-(3-fluoroquinolin-6-yl)-7-(1-methyl-1H-pyrazol-4-yl)-5-(1-(oxetan-3-yl)ethoxy)quinazolin-4-amine], for which the IC50 in assay [3] was less than 10 nM; in assay [4], less than 10 nM; in assay [5] it was not above 10 nM.
`CCNC[C@@H](C)Oc1cc(-c2cnn(C)c2)cc2ncnc(Nc3ccc4ncccc4c3F)c12` [Example 102, (R)-5-((1-(ethylamino)propan-2-yl)oxy)-N-(5-fluoroquinolin-6-yl)-7-(1-methyl-1H-pyrazol-4-yl)quinazolin-4-amine]: the IC50 in assay [3] was 10.1 to 50 nM; in assay [4], 10.1 to 50 nM; in assay [5] it was more than 50.1 nM.
With `C[C@H](CN(C)C)Oc1cc(-c2cnn(C)c2)cc2ncnc(Nc3ccc4ncccc4c3)c12` (single isomer, unassigned) [Example 43, (R)-5-((1-(dimethylamino)propan-2-yl)oxy)-7-(1-methyl-1H-pyrazol-4-yl)-N-(quinolin-6-yl)quinazolin-4-amine or (S)-5-((1-(dimethylamino)propan-2-yl)oxy)-7-(1-methyl-1H-pyrazol-4-yl)-N-(quinolin-6-yl)quinazolin-4-amine], the IC50 in assay [3] (setting [6]) is more than 50.1 nM; in assay [4] (setting [6]), 10.1 to 50 nM; in assay [5] it was more than 50.1 nM.
As to `CO[C@@H]1CCN(c2cc3ncnc(Nc4ccc5ncccc5c4F)c3c(O[C@H](C)CN(C)C)n2)C1` [Example 76, 5—(((R)-1-(dimethylamino)propan-2-yl)oxy)-N-(5-fluoroquinolin-6-yl)-7-((R)-3-methoxypyrrolidin-1-yl)pyrido[4,3-d]pyrimidin-4-amine], the figures for the IC50 in assay [3], in assay [4] and in assay [5] were less than 10 nM, less than 10 nM and not above 10 nM, respectively.
For `C[C@H](CN(C)C)Oc1cc(-c2cnn(C)c2)cc2ncnc(Nc3ccc4nccnc4c3F)c12` [Example 109, (R)-5-((1-(dimethylamino)propan-2-yl)oxy)-N-(5-fluoroquinoxalin-6-yl)-7-(1-methyl-1H-pyrazol-4-yl)quinazolin-4-amine], the IC50 in assay [3] is more than 50.1 nM; in assay [4] it was 10.1 to 50 nM; in assay [5], more than 50.1 nM.
Take `C[C@H](CN(C)C)Oc1cc(-c2cnn(C)c2)cc2ncnc(Nc3ccc4c(ccc[n+]4[O-])c3F)c12` (single isomer, unassigned) [Example 129]: the values for the IC50 in assay [3], in assay [4] and in assay [5] were 10.1 to 50 nM, less than 10 nM and 10.1 to 50 nM, respectively.
